Test results: patent US9394275B2, “Diamide compounds having muscarinic receptor antagonist and BETA2 adrenergic receptor agonist activity” (THERAVANCE RESPIRATORY COMPANY, LLC, priority 2009, dated 2016)
Structures can show the parent of a compound that is named as a salt. Where two headings read alike, the source gives them in different places.

Test system: MCh-induced bronchoconstriction in a rat
Assay: Einthoven assay: bronchoprotection against methacholine (MCh)-induced bronchoconstriction
Assay type: in vivo
Settings: for inhibition in vivo at 0.1 mg: inhaled or nasal, read-out: Broncho. at 24 h
Procedure: This assay measures the ability of a test compound to provide bronchoprotection against methacholine (MCh)-induced bronchoconstriction in a rat. Male Sprague-Dawley rats (Harlan, Indianapolis, Ind.), weighing between 200 g and 350 g, were used for all studies. Test compound or vehicle (sterile deionized water) were dosed by inhalation (IH) over a 10 min period in a pie shaped inhalation chamber (R+S Molds, San Carlos, Calif.) using 5 mL of dosing solution. […] Rats were dosed with 100 μg of test compound unless otherwise indicated. At predetermined time points, rats were anesthetized with an intraperitoneal (IP) injection of 120 mg/kg inactin (thiobutabarbital). A supplemental dose (40 mg/kg, IP) was administered if the animal responded to physical stimuli (e.g. toe pinch). The surgical site was shaved and a 1-2 cm midline incision of the ventral aspect of the neck was made. The jugular vein was isolated and cannulated with a saline-filled polyethylene catheter (PE-50) to allow IV infusion of MCh. Trachea was dissected free and cannulated with a 14G needle (#NE-014, Small Parts, Miami Lakes, Fla.). After placement of the tracheal cannula, each rat was ventilated using a respirator (Model 683, Harvard Apparatus, Inc., MA) set at a stroke volume of 1 mL/100 g body weight (but not exceeding 2.5 mL volume) and a rate of 90 strokes per minute. A T-connector was placed along the respirator expiratory tubing to allow for measurement of changes in ventilation pressure (VP) using a Biopac transducer that was connected to a Biopac […]) pre-amplifier. Body temperature was maintained at 37° C. using a heating pad. Changes in VP were recorded using the Acknowledge Data Collection Software (Santa Barbara, Calif.). Baseline values were collected for at least 2.5 min. Rats were then challenged with non-cumulative intravenous (IV) infusions of 40 and 80 μg/kg MCh. MCh was infused intravenously for 2.5 minutes from a syringe pump (sp210iw, World Precision Instruments, Inc., Sarasota, Fla.) at a rate of 2 mL/kg/min, with a 2 minute interval between the two doses of MCh. Changes in ventilation pressure (cm H2O) in treated animals are expressed as % inhibition of MCh response relative to control animals. Other bronchoconstrictors, such as histamine and acetylcholine, can be used in place of MCh in this assay. Additionally, guinea pigs can be used instead of rats. […] Inhibition greater than or equal to 30 percent at 24 h is indicative of a long duration of action.

[1] = rat, 100 μg by inhalation, 24 h after administration

Compound	Broncho. at 24 h [1]	other results
Cc1cc(CNC[C@H](O)c2ccc(O)c3[nH]c(=O)ccc23)ccc1NC(=O)CCCN(C)C(=O)CCN1CCC(OC(=O)Nc2ccccc2-c2ccccc2)CC1 [Compound I-2]	No	
C[C@H](Cc1cccc(CC(=O)NCCCN(C)C(=O)CCN2CCC(OC(=O)Nc3ccccc3-c3ccccc3)CC2)c1)NC[C@H](O)c1ccc(O)c2[nH]c(=O)ccc12 [Compound I-12]	No	
CN(CCCCC(=O)Nc1ccc(CNC[C@H](O)c2ccc(O)c3[nH]c(=O)ccc23)cc1)C(=O)CCN1CCC(OC(=O)Nc2ccccc2-c2ccccc2)CC1 [Compound I-14, Biphenyl-2-ylcarbamic Acid 1-(2-{[4-(4-{[(R)-2-hydroxy-2-(8-hydroxy-2-oxo-1,2-dihydroquinolin-5-yl)ethylamino]methyl}phenylcarbamoyl)-butyl]methylcarbamoyl}ethyl)piperidin-4-yl Ester Ditrifluoroacetic Acid Salt]	Yes (Bronchoprotective effect present at 24 h, e.g., ≧30% inhibition of the MCh response at 24 h in the rat Einthoven assay (100 μg))	
Cc1cc(NC(=O)CCCCN(C)C(=O)CCN2CCC(OC(=O)Nc3ccccc3-c3ccccc3)CC2)c(C)cc1CNC[C@H](O)c1ccc(O)c2[nH]c(=O)ccc12 [Compound I-18, Biphenyl-2-ylcarbamic Acid 1-(2-{[4-(4-{[(R)-2-Hydroxy-2-(8-hydroxy-2-oxo-1,2-dihydroquinolin-5-yl)ethylamino]methyl}-2,5-dimethylphenylcarbamoyl)butyl]methylcarbamoyl}ethyl)piperidin-4-yl Ester Ditrifluoroacetic Acid Salt]	Yes (Bronchoprotective effect present at 24 h, e.g., ≧30% inhibition of the MCh response at 24 h in the rat Einthoven assay (100 μg))	
Cc1cc(CNC[C@H](O)c2ccc(O)c3[nH]c(=O)ccc23)ccc1NC(=O)c1cccc(N(C)C(=O)CCN2CCC(OC(=O)Nc3ccccc3-c3ccccc3)CC2)c1 [Compound I-27]	No	
Cc1cc(CNC[C@H](O)c2ccc(O)c3[nH]c(=O)ccc23)ccc1NC(=O)c1ccc(C)c(N(C)C(=O)CCN2CCC(OC(=O)Nc3ccccc3-c3ccccc3)CC2)c1 [Compound I-28]	No	
COc1cc(CNC[C@H](O)c2ccc(O)c3[nH]c(=O)ccc23)ccc1NC(=O)c1cccc(N(C)C(=O)CCN2CCC(OC(=O)Nc3ccccc3-c3ccccc3)CC2)c1 [Compound I-29]	No	
Cc1cc(NC(=O)c2cccc(N(C)C(=O)CCN3CCC(OC(=O)Nc4ccccc4-c4ccccc4)CC3)c2)c(C)cc1CNC[C@H](O)c1ccc(O)c2[nH]c(=O)ccc12 [Compound I-30]	No	
CN(C(=O)CCN1CCC(OC(=O)Nc2ccccc2-c2ccccc2)CC1)c1cccc(C(=O)Nc2cccc(CCNC[C@H](O)c3ccc(O)c4[nH]c(=O)ccc34)c2)c1 [Compound I-32]	No	
Cc1ccc(C(=O)Nc2cccc(CCNC[C@H](O)c3ccc(O)c4[nH]c(=O)ccc34)c2)cc1N(C)C(=O)CCN1CCC(OC(=O)Nc2ccccc2-c2ccccc2)CC1 [Compound I-33]	No	
Cc1ccc(C(=O)Nc2ccc(CCNC[C@H](O)c3ccc(O)c4[nH]c(=O)ccc34)cc2)cc1N(C)C(=O)CCN1CCC(OC(=O)Nc2ccccc2-c2ccccc2)CC1 [Compound I-35]		inhibition in vivo at 0.1 mg [1]: > 30%
Cc1ccc(C(=O)Nc2cccc(CC(C)NC[C@H](O)c3ccc(O)c4[nH]c(=O)ccc34)c2)cc1N(C)C(=O)CCN1CCC(OC(=O)Nc2ccccc2-c2ccccc2)CC1 (stereo partly drawn) [Compound I-37]	No	
C[C@H](Cc1cccc(NC(=O)c2cccc(N(C)C(=O)CCN3CCC(OC(=O)Nc4ccccc4-c4ccccc4)CC3)c2)c1)NC[C@H](O)c1ccc(O)c2[nH]c(=O)ccc12 [Compound I-38]	No	
C[C@@H](Cc1cccc(NC(=O)c2cccc(N(C)C(=O)CCN3CCC(OC(=O)Nc4ccccc4-c4ccccc4)CC3)c2)c1)NC[C@H](O)c1ccc(O)c2[nH]c(=O)ccc12 [Compound I-39]	No	
C[C@H](Cc1ccc(NC(=O)c2cccc(N(C)C(=O)CCN3CCC(OC(=O)Nc4ccccc4-c4ccccc4)CC3)c2)cc1)NC[C@H](O)c1ccc(O)c2[nH]c(=O)ccc12 [Compound I-42]	No	
CC(Cc1cccc(CNC(=O)c2cccc(N(C)C(=O)CCN3CCC(OC(=O)Nc4ccccc4-c4ccccc4)CC3)c2)c1)NC[C@H](O)c1ccc(O)c2[nH]c(=O)ccc12 (stereo partly drawn) [Compound I-44]	No	
Cc1ccc(C(=O)NCc2cccc(CC(C)NC[C@H](O)c3ccc(O)c4[nH]c(=O)ccc34)c2)cc1N(C)C(=O)CCN1CCC(OC(=O)Nc2ccccc2-c2ccccc2)CC1 (stereo partly drawn) [Compound I-45]	No	
CC(Cc1cccc(CC(=O)Nc2cccc(N(C)C(=O)CCN3CCC(OC(=O)Nc4ccccc4-c4ccccc4)CC3)c2)c1)NC[C@H](O)c1ccc(O)c2[nH]c(=O)ccc12 (stereo partly drawn) [Compound I-52]	No	
C[C@@H](Cc1cccc(CCNC(=O)c2ccc(N(C)C(=O)CCN3CCC(OC(=O)Nc4ccccc4-c4ccccc4)CC3)cc2)c1)NC[C@H](O)c1ccc(O)c2[nH]c(=O)ccc12 [Compound I-56]	No	
CN(C(=O)CCN1CCC(OC(=O)Nc2ccccc2-c2ccccc2)CC1)c1ccc(CC(=O)NCc2ccc(CCNC[C@H](O)c3ccc(O)c4[nH]c(=O)ccc34)cc2)cc1 [Compound I-64]	No	
CC(Cc1ccc(CNC(=O)Cc2ccc(N(C)C(=O)CCN3CCC(OC(=O)Nc4ccccc4-c4ccccc4)CC3)cc2)cc1)NC[C@H](O)c1ccc(O)c2[nH]c(=O)ccc12 (stereo partly drawn) [Compound I-66]	No	
C[C@@H](Cc1cccc(CC(=O)NCc2ccc(N(C)C(=O)CCN3CCC(OC(=O)Nc4ccccc4-c4ccccc4)CC3)cc2)c1)NC[C@H](O)c1ccc(O)c2[nH]c(=O)ccc12 [Compound I-79]	No	
CC(Cc1ccc(CC(=O)NCc2ccc(N(C)C(=O)CCN3CCC(OC(=O)Nc4ccccc4-c4ccccc4)CC3)cc2)cc1)NC[C@H](O)c1ccc(O)c2[nH]c(=O)ccc12 (stereo partly drawn) [Compound I-80]	No	
C[C@H](Cc1cccc(CCNC(=O)Cc2ccc(N(C)C(=O)CCN3CCC(OC(=O)Nc4ccccc4-c4ccccc4)CC3)cc2)c1)NC[C@H](O)c1ccc(O)c2[nH]c(=O)ccc12 [Compound I-86, Biphenyl-2-ylcarbamic Acid 1-{2-[(4-{[2-(3-{(R)-2-[(R)-2-Hydroxy-2-(8-hydroxy-2-oxo-1,2-dihydroquinolin-5-yl)ethylamino]propyl}phenyl)-ethylcarbamoyl]methyl}phenyl)methylcarbamoyl]ethyl}piperidin-4-yl Ester Ditrifluoroacetic Acid Salt]		inhibition in vivo at 0.1 mg (Rattus norvegicus, 24 h): > 30%
